# Experiments:
# [1] = system: Bacillus subtilis subsp. spizizenii (DSM 347), Staphylococcus xylosus (DSM 20267), Escherichia coli (DSM 1116), Acinetobacter sp. (DSM 586); settings: for MIC: irrespective of the bacterial strain (all four strains), Müller-Hinton medium, 20 h at 37 °C, maximum tested 256 µg/mL; for MIC (relative antimicrobial activity): relative activity over two Gram-positive and two Gram-negative strains
# Experimental: The effect of latarcins against four types of bacteria was determined using a minimum inhibitory concentration (MIC) assay on two Gram-positive strains (Bacillus subtilis subsp. spizizenii and Staphylococcus xylosus) and two Gram-negative strains (Escherichia coli and Acinetobacter sp.). Although the antimicrobial activity of latarcins is well documented, these experiments served to ensure that all studies were performed on molecules that show the expected antimicrobial activity.
# The minimum inhibitory concentration (MIC) was determined as previously reported. For each latarcin, MIC was determined against two Gram-positive strains, namely Bacillus subtilis subsp. spizizenii (DSM 347) and Staphylococcus xylosus (DSM 20267), and two Gram-negative strains: Escherichia coli (DSM 1116) and Acinetobacter sp. (DSM 586). Bacterial cultures were grown in Müller-Hinton medium (MHM) as described previously, and peptides were dissolved in sterile water containing 10% DMSO. The stock solution of peptides with 1024 µg/mL was prepared such that serial dilutions of peptides (from 256 µg/mL to 2 µg/mL) in MHM were prepared in 96-well plates with the penultimate column without peptide to act as positive control (no peptide) and the final column as negative control (no bacteria). Bacterial stock suspension was made with an OD of 0.2 units at 550 nm. This stock solution was further diluted (1:1000 for Gram-negative bacteria and 1:100 for Gram-positive bacteria), and subsequently, 50 µL of the resulting bacterial suspension was added to the wells except the final well to give a final concentration of 10^6 colony-forming units per mL. Afterwards, the 96-well plates were incubated at 37 °C for 20 h, and cellular respiration was detected by adding 20 µL of resazurin solution (200 µg/mL) for an additional 2 h at the same temperature.
# [2] = Solid-state 15N-NMR (helix alignment in membrane); assay type: physicochemical; settings: DMPC/DMPG (7/3); for NMR: orientational state of the helix: P/L = 1:100, oriented samples, solid-state 15N-NMR, 308 K
# Experimental: While OCD provides a rough picture of the peptide alignment, the helix tilt angle can be measured rather precisely by solid-state NMR using the same type of oriented membrane sample. […] If the peptides are not helical, then the orientation cannot be determined from these ^15N-NMR spectra (which is why CD/OCD need to be performed first), but other information may be available. Oriented NMR samples were prepared at a P/L of 1/100 in DMPC/DMPG (7/3), as for CD/OCD. The ^15N-NMR spectra of all latarcins are summarized in Figure 7, along with the corresponding ^31P-NMR spectra of the phospholipid component. […] This conclusion is supported by the vesicle leakage data above.
# Ltc2a, with a chemical shift of 131 ppm, on the other hand, is distinctly tilted in the membrane, as was also observed in the OCD experiments. […] Ltc3a, with a chemical shift of 93 ppm, is tilted only slightly by 10–20°. […] Given that OCD had shown distinct signs of aggregation into β-sheets, we can conclude that Ltc6a binds to the membrane and perturbs the lipid bilayer, but it is not possible to determine the molecular alignment of Ltc6a when it has most likely formed aggregates.
# Macroscopically oriented NMR samples were prepared by co-dissolving appropriate amounts of peptides and lipids (in 300 μL methanol, 100 μL CHCl3, and 10–20 μL Milli-Q water) and spreading them onto 23 thin glass plates of dimensions 9 mm × 7.5 mm × 0.08 mm (Marienfeld Laboratory Glassware, Lauda-Königshofen, Germany). The peptide-to-lipid ratio (P/L) is given in mol/mol. The plates were dried in air for 1 h, followed by drying under vacuum overnight. The plates were stacked and placed into a hydration chamber with 96% relative humidity at 48 °C for 18–24 h before wrapping the stack in parafilm and plastic foil for the NMR measurements. All solid-state NMR measurements were carried out on a Bruker Avance 500 MHz spectrometer (Bruker Biospin, Karlsruhe, Germany) at 308 K, as previously reported. The oriented membrane samples were placed in the flat-coil probe such that the lipid bilayer normal was aligned parallel to the magnetic field. ^31P-NMR was used to check the quality of the lipid orientation in the samples, using a Hahn echo sequence with phase cycling. The 90° pulse length was 3.9 µs, the echo time was 30 µs, and 17 kHz ^1H SPINAL64 decoupling was used. ^1H-^15N cross-polarization experiments using a CP-MOIST pulse sequence were performed using a double-tuned probe with a low-E flat-coil resonator (3 mm × 9 mm cross-section), employing a ^1H and ^15N radiofrequency field strength of 65 kHz during the cross-polarization and 25 kHz ^1H SPINAL16 [41] decoupling during acquisition. A mixing time of 500 μs was used, and 10,000 to 30,000 scans were accumulated. The acquisition time was 10 ms, and the recycle time was 3 s. The ^15N chemical shift was referenced using the ^1H-NMR signal of water in the sample.
Substance,MIC [1],MIC (relative antimicrobial activity) [1],NMR: orientational state of the helix [2],"helix tilt angle away from the flat surface orientation ([2]; from 15N chemical shift, P/L 1/100)"
G E TF D K L K E K L K TFYQ K LV E K A ED L K G D L K A K LS-acid [Ltc7],> 256 µg/mL,−,Surface,
H-GFFGKMKEYFKKFGASFKRRFANLKKRL-NH2 [Ltc5],below 4 µg/mL,+++,Surface,
H-GLKDKFKSMGEKLKQYIQTWKAKF-NH2 [Ltc4a],8 to 32 µg/mL,++,,
H-QAFQTFKPDWNKIRYDAMKMQTSLGQMKKRFNL-OH [Ltc6a],,+,Aggregated,
H-SWKSMAKKLKEYMEKLKQRA-NH2 [Ltc3a],8 to 32 µg/mL,++,Slight tilt,10–20 °
